The target of assay [1] is T1, neurokinin-1 (NK-1) receptor (Homo sapiens, UniProt P25103).
T1 construct: a human glioblastoma-astrocytoma cell line that endogenously expresses the neurokinin-1 (NK-1) receptor; endogenous in cells; host or cells: U373 human glioblastoma-astrocytoma cells (membranes)
Kind of assay: NK-1 binding, [125I] Substance P competition, U373 cell membranes. The following applies: for pIC50: U373 membranes, Bolton Hunter [125I] Substance P displacement; for activity for NK-1: summary statement referring to Table 1. As to the method:
U373 cells, a human glioblastoma-astrocytoma cell line that endogenously expresses the neurokinin-1 (NK-1) receptor, were grown in a monolayer culture at 37° C. in 5% CO2 and fed with Minimum Essential Medium (MEM) supplemented with 10% fetal bovine serum. Membranes were prepared as follows: Cells were washed twice with ice-cold phosphate-buffered saline (pH 7.4) and then incubated for 5 to 10 minutes with ice-cold 10 mM Tris buffer (pH 7.4) containing 5 mM EDTA. Cells were removed from plates, homogenized, and centrifuged at 32,000×g for 20 minutes. The resulting supernatant was discarded, and the pellet resuspended by homogenization in 50 mM Tris buffer (pH 7.4) containing 1 mM EDTA and centrifuged at 32,000×g for 20 minutes. The resulting supernatant was discarded, and the pellet resuspended by homogenization in NK-1 binding assay buffer (50 mM Tris-HCL (pH 7.4), 3 mM MnCl2, 200 μg/ml BSA, 5 μg/ml chymostatin, 40 μg/ml bacitracin and 4 μg/ml leupeptin).
On the day of an experiment the membrane preparation was thawed, homogenized and diluted with NK-1 binding assay buffer to the appropriate concentration. Competition binding assays were performed in 96 well plate format by incubating membranes (5–10 ug/well) with Bolton Hunter labeled [^125I] Substance P, at a concentration of […], and concentrations of drugs ranging from 10000 to 0.01 nM. Samples were incubated for 30 min at 20° C. then filtered through GF/B glass fiber filters (pretreated with 1% polyethyleneimine and 0.3% Triton X-100) using a Brandel cell harvester. The filters were then washed with 10 ml ice cold 50 mM Tris-HCL (pH 7.4) containing 3 mM MgCl2. Non-specific was defined in the presence of 2 μM L-733,060 (a non-peptide NK-1 antagonist). Amount of radioligand bound in the presence and absence of competitor was analyzed by plotting (−)log drug concentration versus the amount of radioligand specifically bound. The midpoint of the displacement curve (IC50, nM), signifies the potency. Ki values were calculated using the method of Cheng and Prusoff [Cheng, Y.-C. and Prusoff, W. H., Biochemical Pharmacology, Vol. 22, pp. 3099–3108, Pergamon Press (1973)].

The target in assay [2] is T2, human serotonin transporters (Homo sapiens, UniProt P31645).
T2 construct: expressed in transfected cells; host or cells: HEK-293 cells stably expressing hSERT (G418 selection), membranes
Kind of assay: Serotonin transporter binding assay, [3H]-citalopram, HEK-hSERT membranes. The following applies: for pIC50: HEK-hSERT membranes, 1 nM [3H]-citalopram displacement, read-out: SERT IC50; for activity for SERT: summary statement referring to Table 1. As for the experimental part:
Serotonin Transporter Binding Assay
HEK-293 cells that stably express human serotonin transporters (HEK-hSERT cells) were grown at 37° C. in 5% CO2 as a monolayer in medium consisting of EMEM supplemented with 10% fetal bovine serum and G418 sulfate (500 μg/ml). To prepare membranes for radioligand binding experiments, cells were rinsed twice with phosphate-buffered saline (138 mM NaCl, 4.1 mM KCl, 5.1 mM Na2PO4, 1.5 mM […], 11.1 mM glucose, pH 7.4). Cells were transferred from plates to polypropylene tubes (16×100 mm), centrifuged at 1,200×g for 5 min and were frozen at −80° C. until assay. Following centrifugation, pellets were resuspended by homogenization in buffer consisting of 50 mM Tris (pH 7.7 at 25° C.), 120 mM NaCl and 5 mM KCl and then centrifuged at 32,000×g for 10 min. Following centrifugation, supernatants were discarded and pellets were resuspended in buffer consisting of 50 mM Tris (pH 7.4 at 25° C.), 150 mM NaCl and 5 mM KCl. Membrane homogenates (200 μl/plate) were incubated with 1 nM [^3H]-citalopram (specific activity=85 Ci/mmol) and increasing concentrations of test compounds for 1 hr at 25° C. in a total volume of 250 μl. The assay buffer consisted of 50 mM Tris (pH 7.4 at 25° C.), 120 mM NaCl and 5 mM KCl (pH 7.4 with conc. HCl). Plates were incubated for 1 hr at 25° C., then filtered through 0.5% PEI treated Whatman GF/B filters using a Brandel cell harvester. Filters were washed three times with 3 ml of ice-cold Tris wash buffer. Non-specific binding was defined with 10 μM fluoxetine. Amount of radioligand bound in the presence and absence of competitor was analyzed by plotting (−)log drug concentration versus the amount of radioligand specifically bound. The midpoint of the displacement curve (IC50, nM), signifies the potency. Ki values were calculated using the method of Cheng and Prusoff [Cheng, Y.-C. and Prusoff, W. H., Biochemical Pharmacology, Vol. 22, pp. 3099–3108, Pergamon Press (1973)].

The record followed here is patent US7138423B2, “Arylpyrrolidine derivatives as NK-1 /SSRI antagonists” (Bristol-Myers Squibb Company, priority 2004, dated 2006).

pIC50: −log10 of the molar value. Structures can show the parent of a compound that is named as a salt.

T1 sequence (P25103 whole entry): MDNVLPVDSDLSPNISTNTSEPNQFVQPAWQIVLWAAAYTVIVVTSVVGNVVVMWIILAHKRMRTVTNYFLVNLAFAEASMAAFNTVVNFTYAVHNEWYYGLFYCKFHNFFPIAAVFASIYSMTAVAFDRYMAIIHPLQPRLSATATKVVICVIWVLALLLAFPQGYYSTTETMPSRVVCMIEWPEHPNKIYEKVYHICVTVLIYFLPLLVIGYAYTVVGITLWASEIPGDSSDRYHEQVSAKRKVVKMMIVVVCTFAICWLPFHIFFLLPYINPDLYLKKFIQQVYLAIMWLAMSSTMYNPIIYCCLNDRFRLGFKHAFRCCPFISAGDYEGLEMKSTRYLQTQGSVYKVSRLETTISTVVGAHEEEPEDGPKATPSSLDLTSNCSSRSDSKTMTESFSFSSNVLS
T2 sequence (P31645 whole entry): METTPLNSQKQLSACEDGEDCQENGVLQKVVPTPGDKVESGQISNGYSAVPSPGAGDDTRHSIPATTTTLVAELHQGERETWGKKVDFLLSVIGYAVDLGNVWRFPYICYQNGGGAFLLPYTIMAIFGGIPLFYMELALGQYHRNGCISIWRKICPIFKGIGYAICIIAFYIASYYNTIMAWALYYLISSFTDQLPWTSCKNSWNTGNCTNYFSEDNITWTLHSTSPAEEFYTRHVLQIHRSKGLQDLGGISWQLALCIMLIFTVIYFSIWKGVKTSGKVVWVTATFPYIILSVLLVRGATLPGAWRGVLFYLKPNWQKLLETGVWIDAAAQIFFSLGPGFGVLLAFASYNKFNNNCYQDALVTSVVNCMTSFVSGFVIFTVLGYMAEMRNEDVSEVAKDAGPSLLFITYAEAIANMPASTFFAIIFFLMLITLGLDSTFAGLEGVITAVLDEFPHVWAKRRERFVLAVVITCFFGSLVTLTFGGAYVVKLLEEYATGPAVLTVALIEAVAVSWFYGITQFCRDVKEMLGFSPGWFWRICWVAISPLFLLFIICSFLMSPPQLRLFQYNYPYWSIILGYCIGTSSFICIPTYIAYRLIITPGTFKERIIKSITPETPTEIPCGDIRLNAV

Turning to `FC(F)(F)c1cc(COC[C@@H]2CNC[C@H]2c2c[nH]c3ccccc23)cc(C(F)(F)F)c1` (relative stereo) [Example 8, Trans-3-(4-((3,5-bis(trifluoromethyl)benzy-loxy)methyl)pyrrolidin-3-yl)-1H-indole], the pIC50 – broadly, −log10 of the IC50, conventionally taken in molar units – in assay [1] was 6.52 to 7.00.
In the case of `Cc1cc(C)cc(COCC2CNCC2c2ccccc2)c1` (stereo not drawn) [Example 2, Trans-3-((3,5-dimethylbenzyloxy)-methyl)-4-phenylpyrrolidine], in assay [2], the negative-log IC50 (pIC50) is 7.00 to 7.70 and the “activity for SERT” value is “have activity”. Further, in assay [1], the pIC50 was 6.52 to 7.00 and the “activity for NK-1” value is “have activity”.
In assay [1], `FC(F)(F)c1cc(COC[C@@H]2CNC[C@H]2c2ccccc2)cc(C(F)(F)F)c1` (relative stereo) [Example 1, Trans-3-((3,5-bis(trifluoromethyl)benzyloxy)methyl)-4-phenylpyrrolidine hydrochloride] gave a negative logarithm of the IC50 (pIC50) of 7.00 to 7.70.
Regarding `Cc1cc(C)cc(OC[C@@H]2CNC[C@H]2c2ccccc2)c1` (relative stereo) [Example 11, Trans-3-((3,5-dimethylphenoxy)methyl)-4-phenylpyrrolidine hydrochloride], the pIC50 in assay [2] is 7.00 to 7.70.
On to `FC(F)(F)c1cc(OCC2CNCC2c2ccccc2)cc(C(F)(F)F)c1` (stereo not drawn) [Example 10, Trans-3-((3,5-bis(trifluoromethyl)phenoxy)methyl)-4-phenylpyrrolidine trifluoroacetic acid salt], for which, in assay [2], the pIC50 is 7.00 to 7.70 and the “activity for SERT” value was “have activity”. Moreover, in assay [1], the negative logarithm of the IC50 (pIC50) is 6.52 to 7.00 and the “activity for NK-1” value was “have activity”.
As for `FC(F)(F)c1cccc(COC[C@@H]2CNC[C@H]2c2ccccc2)c1` (relative stereo) [Example 6, Trans-3-((3-trifluoromethylbenzyloxy)-methyl)-4-phenylpyrrolidine], the negative logarithm of the IC50 (pIC50) in assay [2] is 7.00 to 7.70.
As for `FC(F)(F)c1cc(OC[C@@H]2CNC[C@H]2c2c[nH]c3ccccc23)cc(C(F)(F)F)c1` (relative stereo) [Example 12, Trans-3-(4-((3,5-bis(trifluoromethyl)phenoxy)methyl)pyrrolidin-3-yl)-1H-indole], the pIC50 in assay [1] was 6.52 to 7.00.
Regarding `Fc1cc(F)cc(COC[C@@H]2CNC[C@H]2c2ccccc2)c1` (relative stereo) [Example 4, Trans-3-((3,5-difluorobenzyloxy)methyl)-4-phenylpyrrolidine], the pIC50 in assay [2] is 7.00 to 7.70.
Same read-out and setting: next, `FC(F)(F)c1ccccc1COC[C@@H]1CNC[C@H]1c1ccccc1` (relative stereo) [Example 5, Trans-3-((2-trifluorobenzyloxy)-methyl)-4-phenylpyrrolidine]: 6.52 to 7.00.
